This note sets out measurements from ChEMBL document CHEMBL5291721, “A preclinical secondary pharmacology resource illuminates target-adverse drug reaction associations of marketed drugs” (Nat Commun, 2023).

Assay [1] deals with Voltage-dependent L-type calcium channel subunit alpha-1C (Rattus norvegicus, UniProt P22002). Format: functional.
Assay [2] concerns the target Beta-2 adrenergic receptor (Homo sapiens, UniProt P07550).
Assay [3] has as its target Glutamate receptor ionotropic, NMDA 1 (Rattus norvegicus, UniProt P35439).
Assay [4] has as its target T1, 5-hydroxytryptamine receptor 2C (Homo sapiens, UniProt P28335).
T1 sequence (P28335 whole entry): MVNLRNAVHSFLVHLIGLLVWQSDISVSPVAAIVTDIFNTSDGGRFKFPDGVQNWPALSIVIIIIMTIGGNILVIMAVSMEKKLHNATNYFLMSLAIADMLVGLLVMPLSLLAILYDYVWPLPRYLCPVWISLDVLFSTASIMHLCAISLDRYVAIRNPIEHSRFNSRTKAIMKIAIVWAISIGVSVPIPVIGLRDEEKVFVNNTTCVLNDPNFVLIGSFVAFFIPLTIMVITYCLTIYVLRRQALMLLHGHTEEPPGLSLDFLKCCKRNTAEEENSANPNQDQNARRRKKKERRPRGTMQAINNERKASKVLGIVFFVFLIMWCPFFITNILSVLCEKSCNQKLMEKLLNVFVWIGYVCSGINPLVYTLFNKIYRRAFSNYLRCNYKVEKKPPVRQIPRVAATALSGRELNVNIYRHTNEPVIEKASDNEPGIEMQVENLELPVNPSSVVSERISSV

Assay [5] deals with Sodium-dependent dopamine transporter (Homo sapiens, UniProt Q01959).
In assay [6] the target is T2, Equilibrative nucleoside transporter 1 (Homo sapiens, UniProt Q99808).
T2 sequence (Q99808 whole entry): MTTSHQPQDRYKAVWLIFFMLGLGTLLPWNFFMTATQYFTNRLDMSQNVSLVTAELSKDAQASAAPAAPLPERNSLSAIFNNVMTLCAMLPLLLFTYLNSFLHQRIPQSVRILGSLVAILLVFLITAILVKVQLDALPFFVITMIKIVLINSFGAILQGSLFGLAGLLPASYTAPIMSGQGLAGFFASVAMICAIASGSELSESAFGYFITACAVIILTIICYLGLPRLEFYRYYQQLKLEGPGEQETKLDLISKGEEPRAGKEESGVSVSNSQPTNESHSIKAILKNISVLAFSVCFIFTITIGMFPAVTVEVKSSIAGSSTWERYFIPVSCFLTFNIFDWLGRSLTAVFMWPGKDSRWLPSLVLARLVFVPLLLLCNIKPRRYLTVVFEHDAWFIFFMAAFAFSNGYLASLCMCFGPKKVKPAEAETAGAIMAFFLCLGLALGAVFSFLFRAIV

Another assay addresses T3, Progesterone receptor (Homo sapiens, UniProt P06401).
T3 sequence (P06401 whole entry): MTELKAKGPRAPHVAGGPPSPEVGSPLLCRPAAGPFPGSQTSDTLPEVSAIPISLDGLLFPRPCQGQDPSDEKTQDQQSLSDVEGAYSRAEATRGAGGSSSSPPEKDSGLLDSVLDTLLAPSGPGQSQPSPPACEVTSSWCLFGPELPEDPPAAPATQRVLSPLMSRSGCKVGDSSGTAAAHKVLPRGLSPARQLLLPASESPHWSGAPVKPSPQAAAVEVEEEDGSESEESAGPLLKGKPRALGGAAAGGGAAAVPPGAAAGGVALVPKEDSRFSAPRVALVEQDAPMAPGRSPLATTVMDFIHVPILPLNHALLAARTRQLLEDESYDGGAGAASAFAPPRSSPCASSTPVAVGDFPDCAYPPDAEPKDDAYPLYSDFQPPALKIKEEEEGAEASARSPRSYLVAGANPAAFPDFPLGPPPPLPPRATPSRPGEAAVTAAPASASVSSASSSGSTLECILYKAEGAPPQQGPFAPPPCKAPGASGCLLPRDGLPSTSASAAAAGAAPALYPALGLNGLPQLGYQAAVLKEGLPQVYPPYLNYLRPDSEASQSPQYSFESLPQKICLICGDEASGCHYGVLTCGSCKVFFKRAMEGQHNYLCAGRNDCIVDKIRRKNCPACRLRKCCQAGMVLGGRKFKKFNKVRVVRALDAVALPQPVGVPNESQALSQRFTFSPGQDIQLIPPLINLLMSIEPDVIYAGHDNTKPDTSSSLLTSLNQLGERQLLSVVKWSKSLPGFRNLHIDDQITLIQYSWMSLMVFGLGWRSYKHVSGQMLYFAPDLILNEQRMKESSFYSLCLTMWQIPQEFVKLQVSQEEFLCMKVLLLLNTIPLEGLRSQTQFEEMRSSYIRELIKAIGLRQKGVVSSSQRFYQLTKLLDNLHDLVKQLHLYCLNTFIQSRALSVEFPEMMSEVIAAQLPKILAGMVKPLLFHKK
The format is functional.

Assay [7] addresses T4, Gastrin/cholecystokinin type B receptor (Homo sapiens, UniProt P32239).
T4 sequence (P32239 whole entry): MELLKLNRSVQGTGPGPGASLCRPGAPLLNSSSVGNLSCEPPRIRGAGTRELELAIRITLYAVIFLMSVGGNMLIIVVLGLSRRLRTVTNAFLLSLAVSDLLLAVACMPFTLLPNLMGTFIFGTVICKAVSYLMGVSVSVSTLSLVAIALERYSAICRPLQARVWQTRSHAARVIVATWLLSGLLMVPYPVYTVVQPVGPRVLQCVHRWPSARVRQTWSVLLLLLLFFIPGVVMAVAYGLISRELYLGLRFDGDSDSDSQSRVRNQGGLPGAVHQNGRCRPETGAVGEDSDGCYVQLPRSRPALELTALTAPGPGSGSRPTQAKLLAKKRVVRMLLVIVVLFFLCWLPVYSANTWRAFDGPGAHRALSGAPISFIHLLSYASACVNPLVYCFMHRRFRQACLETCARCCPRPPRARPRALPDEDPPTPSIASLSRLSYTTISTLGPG

Assay [8] has as its target T5, Alpha-2B adrenergic receptor (Homo sapiens, UniProt P18089).
T5 sequence (P18089 whole entry): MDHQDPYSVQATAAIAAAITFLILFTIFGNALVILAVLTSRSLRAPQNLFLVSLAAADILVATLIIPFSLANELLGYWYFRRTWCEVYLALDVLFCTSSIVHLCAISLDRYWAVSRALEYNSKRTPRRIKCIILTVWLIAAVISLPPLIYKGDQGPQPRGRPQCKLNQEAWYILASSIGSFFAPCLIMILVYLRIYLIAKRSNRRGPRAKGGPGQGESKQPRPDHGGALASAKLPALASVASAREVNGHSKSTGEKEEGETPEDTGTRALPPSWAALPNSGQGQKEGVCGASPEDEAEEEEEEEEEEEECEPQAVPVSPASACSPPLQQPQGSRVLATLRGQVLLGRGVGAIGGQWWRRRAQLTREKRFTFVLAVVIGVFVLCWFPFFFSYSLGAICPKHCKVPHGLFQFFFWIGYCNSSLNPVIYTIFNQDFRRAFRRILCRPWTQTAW
Further: assay procedure not described here.

Chain of Voltage-dependent L-type calcium channel subunit alpha-1C (P22002 whole entry): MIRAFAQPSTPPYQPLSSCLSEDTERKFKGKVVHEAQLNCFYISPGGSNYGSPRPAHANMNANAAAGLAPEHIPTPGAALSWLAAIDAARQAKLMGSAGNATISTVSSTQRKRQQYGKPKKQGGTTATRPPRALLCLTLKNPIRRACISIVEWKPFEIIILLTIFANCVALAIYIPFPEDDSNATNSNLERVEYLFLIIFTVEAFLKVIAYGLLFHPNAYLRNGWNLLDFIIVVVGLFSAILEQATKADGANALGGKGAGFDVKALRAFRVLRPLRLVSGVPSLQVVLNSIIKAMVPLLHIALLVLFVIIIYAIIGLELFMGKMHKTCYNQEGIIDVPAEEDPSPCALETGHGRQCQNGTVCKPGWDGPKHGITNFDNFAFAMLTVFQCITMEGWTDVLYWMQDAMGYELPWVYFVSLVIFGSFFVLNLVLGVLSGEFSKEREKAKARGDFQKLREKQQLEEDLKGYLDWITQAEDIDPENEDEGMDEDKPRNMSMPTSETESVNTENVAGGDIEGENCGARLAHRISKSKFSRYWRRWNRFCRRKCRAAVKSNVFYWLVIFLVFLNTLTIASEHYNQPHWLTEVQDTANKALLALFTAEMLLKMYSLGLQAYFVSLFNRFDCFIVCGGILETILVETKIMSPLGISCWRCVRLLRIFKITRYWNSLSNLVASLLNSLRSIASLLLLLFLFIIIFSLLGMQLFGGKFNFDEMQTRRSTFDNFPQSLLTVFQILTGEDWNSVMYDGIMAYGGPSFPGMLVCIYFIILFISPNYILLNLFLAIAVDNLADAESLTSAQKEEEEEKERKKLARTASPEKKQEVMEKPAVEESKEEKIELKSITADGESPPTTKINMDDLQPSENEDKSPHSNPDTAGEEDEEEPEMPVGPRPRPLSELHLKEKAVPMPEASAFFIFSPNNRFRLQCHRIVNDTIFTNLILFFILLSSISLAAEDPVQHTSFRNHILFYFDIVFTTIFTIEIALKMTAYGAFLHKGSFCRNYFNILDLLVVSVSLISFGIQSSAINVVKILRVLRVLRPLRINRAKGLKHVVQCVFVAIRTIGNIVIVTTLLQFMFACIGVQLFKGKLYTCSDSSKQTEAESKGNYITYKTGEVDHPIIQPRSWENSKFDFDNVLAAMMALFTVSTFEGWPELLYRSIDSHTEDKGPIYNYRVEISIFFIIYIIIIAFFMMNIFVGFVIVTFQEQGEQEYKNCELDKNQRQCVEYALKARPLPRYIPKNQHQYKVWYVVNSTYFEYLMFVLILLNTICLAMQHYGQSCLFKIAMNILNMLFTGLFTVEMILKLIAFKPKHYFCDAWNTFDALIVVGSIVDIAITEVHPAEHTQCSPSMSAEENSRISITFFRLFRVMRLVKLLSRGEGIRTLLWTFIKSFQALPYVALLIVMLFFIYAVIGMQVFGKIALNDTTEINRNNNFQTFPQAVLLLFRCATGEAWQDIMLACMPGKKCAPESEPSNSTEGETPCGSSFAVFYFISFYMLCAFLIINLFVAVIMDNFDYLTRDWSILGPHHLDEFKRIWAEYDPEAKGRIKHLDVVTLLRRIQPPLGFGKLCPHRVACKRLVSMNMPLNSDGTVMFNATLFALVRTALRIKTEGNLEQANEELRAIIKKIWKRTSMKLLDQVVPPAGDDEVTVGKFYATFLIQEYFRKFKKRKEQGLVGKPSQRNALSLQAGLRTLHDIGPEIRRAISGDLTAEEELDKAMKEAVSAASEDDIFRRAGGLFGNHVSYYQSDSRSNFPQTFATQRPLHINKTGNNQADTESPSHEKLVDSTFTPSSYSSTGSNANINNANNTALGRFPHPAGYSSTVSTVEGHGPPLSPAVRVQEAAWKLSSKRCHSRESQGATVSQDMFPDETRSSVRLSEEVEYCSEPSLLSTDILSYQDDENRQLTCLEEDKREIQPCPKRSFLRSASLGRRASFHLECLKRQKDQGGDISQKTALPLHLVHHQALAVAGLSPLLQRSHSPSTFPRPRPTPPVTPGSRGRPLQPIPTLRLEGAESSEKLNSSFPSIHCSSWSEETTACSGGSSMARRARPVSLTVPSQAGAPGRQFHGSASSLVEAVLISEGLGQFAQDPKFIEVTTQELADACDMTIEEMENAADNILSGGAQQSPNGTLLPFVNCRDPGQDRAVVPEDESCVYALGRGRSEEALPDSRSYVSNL
Chain of Sodium-dependent dopamine transporter (Q01959 whole entry): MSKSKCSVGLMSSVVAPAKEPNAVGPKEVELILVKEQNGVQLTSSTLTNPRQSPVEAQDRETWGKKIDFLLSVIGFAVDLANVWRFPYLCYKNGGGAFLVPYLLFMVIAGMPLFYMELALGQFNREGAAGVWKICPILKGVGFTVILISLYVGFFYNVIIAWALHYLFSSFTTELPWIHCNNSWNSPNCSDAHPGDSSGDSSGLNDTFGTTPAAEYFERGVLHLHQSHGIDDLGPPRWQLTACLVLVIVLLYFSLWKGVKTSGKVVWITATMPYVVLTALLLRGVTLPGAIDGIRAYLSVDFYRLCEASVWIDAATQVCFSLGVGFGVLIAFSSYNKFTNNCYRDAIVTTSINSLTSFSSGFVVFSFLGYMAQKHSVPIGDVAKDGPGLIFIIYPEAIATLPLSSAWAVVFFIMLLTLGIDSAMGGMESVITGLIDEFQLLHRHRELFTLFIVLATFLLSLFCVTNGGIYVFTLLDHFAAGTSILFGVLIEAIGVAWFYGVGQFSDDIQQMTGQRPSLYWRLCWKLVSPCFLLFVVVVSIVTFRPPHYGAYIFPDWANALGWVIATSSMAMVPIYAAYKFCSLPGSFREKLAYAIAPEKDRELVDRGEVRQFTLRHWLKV

As to `CCC1(C)CC(=O)NC1=O` (configuration not stated) [ETHOSUXIMIDE], the AC50 (as a rule, the midpoint of the concentration-response curve, whichever way the signal moves) was greater than 10 µM in [1]; greater than 10 µM in [2]; greater than 10 µM in assay [3]; greater than 30 µM in [4]; greater than 10 µM in assay [5]; greater than 10 µM in [6]. In addition, at Progesterone receptor, the AC50 is greater than 10 µM.

Turning to `CN1CCC(=C2c3ccccc3CC(=O)c3sccc32)CC1` [KETOTIFEN], the AC50 in assay [1] is greater than 10 µM; in assay [2] it was greater than 10 µM; in assay [3] it was greater than 10 µM; in assay [4], 2.3 µM; in assay [5], greater than 10 µM; in assay [6], greater than 10 µM. For the same molecule, at Progesterone receptor, the concentration at half-maximal activity (AC50) was greater than 10 µM.

As for `CC(=O)Oc1cccc2c1C(=O)c1c(OC(C)=O)cc(C(=O)O)cc1C2=O` [DIACEREIN], the AC50 in assay [1], in assay [7], in assay [2], in [3], in assay [4] and in assay [5] was greater than 30 µM in each case. In addition, the AC50 in [6] is 4.8 µM; in [8] it was greater than 30 µM.

For the molecule `CC1CC(OC(=O)C(O)c2ccccc2)CC(C)(C)C1` (configuration not stated) [CYCLANDELATE], the AC50 in assay [1] was greater than 10 µM; in assay [2], greater than 10 µM; in assay [3] it was greater than 10 µM; in assay [4], greater than 30 µM; in [5], greater than 30 µM; in assay [6] it was greater than 30 µM. Further, the half-maximal activity concentration (AC50) on Progesterone receptor is greater than 30 µM.

`COc1ccc2c3c1O[C@H]1C(=O)CC[C@H]4[C@@H](C2)N(C)CC[C@]314` [HYDROCODONE]: the AC50 was greater than 10 µM in [1]; greater than 30 µM in assay [7]; greater than 10 µM in assay [2]; greater than 10 µM in assay [3]; greater than 30 µM in [4]; greater than 10 µM in assay [5]. Besides, the AC50 was greater than 30 µM in assay [6] and greater than 10 µM in assay [8].

Take `CC(C)(C)NCC(O)COc1cccc2c1CC(O)C(O)C2` (configuration not stated) [NADOLOL]: the AC50 in [1] was greater than 10 µM; in [3], greater than 10 µM; in assay [4] it was greater than 30 µM; in assay [5] it was greater than 10 µM; in assay [6], greater than 10 µM; on Progesterone receptor, greater than 10 µM.

Turning to `CC(=O)N1CCN(c2ccc(OCC3COC(Cn4ccnc4)(c4ccc(Cl)cc4Cl)O3)cc2)CC1` (configuration not stated) [KETOCONAZOLE], the AC50 in assay [1] is greater than 10 µM; in [2], greater than 10 µM; in assay [3], greater than 10 µM; in assay [4], greater than 30 µM; in assay [5], greater than 30 µM; in assay [6], 35.2 µM. The molecule further registered a concentration at half-maximal activity (AC50) at Progesterone receptor greater than 10 µM.

With `O=C(O[C@H]1C[N+]2(CCCOc3ccccc3)CCC1CC2)C(O)(c1cccs1)c1cccs1` [ACLIDINIUM BROMIDE], the AC50 in [1] was greater than 10 µM; in [7], greater than 30 µM; in assay [2], greater than 10 µM; in [3] it was greater than 10 µM; in assay [4], greater than 30 µM; in assay [5] it was greater than 10 µM. Further, the AC50 is greater than 30 µM in assay [6] and greater than 10 µM in [8].

On to `Cc1ccc(-c2ncc(Cl)cc2-c2ccc(S(C)(=O)=O)cc2)cn1` [ETORICOXIB], for which the AC50 in assay [1], in assay [7], in assay [2], in [3], in [4] and in assay [5] was greater than 10 µM in each case. For the same molecule, the AC50 in assay [6] is greater than 30 µM; in [8] it was greater than 10 µM.

Take `Oc1cc(O)c2c(c1)O[C@H](c1ccc(O)c(O)c1)[C@@H](O)C2` [CIANIDANOL]: the AC50 in [1] was greater than 10 µM; in assay [7], greater than 30 µM; in assay [2] it was greater than 10 µM; in assay [3] it was greater than 10 µM; in [4] it was greater than 30 µM; in assay [5], greater than 30 µM. Further, the AC50 was greater than 30 µM in assay [6] and greater than 10 µM in assay [8].

In the case of `Cc1cnc(Nc2ccc(OCCN3CCCC3)cc2)nc1Nc1cccc(S(=O)(=O)NC(C)(C)C)c1` [FEDRATINIB], the AC50 is greater than 10 µM in [1]; greater than 30 µM in [7]; greater than 10 µM in assay [2]; greater than 10 µM in assay [3]; greater than 30 µM in assay [4]; 0.08 µM in assay [5]. Besides, the AC50 in assay [6] was greater than 30 µM; in assay [8], greater than 10 µM.

For the molecule `CN(Cc1ccc(C(C)(C)C)cc1)Cc1cccc2ccccc12` [BUTENAFINE], the AC50 in assay [1] was greater than 10 µM; in assay [2] it was greater than 10 µM; in assay [3] it was greater than 10 µM; in assay [4], greater than 30 µM; in assay [5], greater than 10 µM; in assay [6], greater than 10 µM. On Progesterone receptor, this molecule returned an AC50 greater than 30 µM.

As to `CC1NCCOC1c1ccccc1` (configuration not stated) [PHENMETRAZINE], the AC50 in assay [1] is greater than 10 µM; in assay [7], greater than 30 µM; in assay [2], greater than 10 µM; in [3], greater than 10 µM; in [4] it was greater than 30 µM; in [5] it was 25.6 µM. Moreover, the AC50 in assay [6] is greater than 30 µM; in assay [8], greater than 10 µM.

`Nc1ccc(S(=O)(=O)Nc2ncccn2)cc1` [SULFADIAZINE]: the AC50 in assay [1] is greater than 10 µM; in assay [2] it was greater than 10 µM; in assay [3], greater than 10 µM; in [4] it was greater than 30 µM; in [5], greater than 10 µM; in assay [6], greater than 10 µM. This molecule also registered an AC50 on Progesterone receptor greater than 10 µM.

In the case of SITOSTEROLS, the half-maximal activity concentration (AC50) in assay [1] was greater than 30 µM; in [7], greater than 10 µM; in [2], greater than 30 µM; in [3], greater than 30 µM; in [4], greater than 30 µM; in assay [5], greater than 30 µM. For the same molecule, the AC50 in assay [6] and in assay [8] was greater than 30 µM throughout.
